Assay results published in US20240383909A1, “CO-CRYSTALS” (INTRA-CELLULAR THERAPIES, INC., priority 2021, published 2024).
In brackets after ≈: the same amount, converted by molar mass.

Experiment: Aqueous solubility of co-crystals (saturated solutions in water, liquid chromatography)
Assay type: physicochemical
Conditions: thermodynamic from solid, time point not stated, read-out: solubility for the Free Base (comparison)
Experimental: The aqueous solubility of the co-crystals is determined by creating saturated solutions containing individual co-crystals in water. The saturated solutions are shaken for 24 hours at room temperature. Samples are taken at two timepoints (2 hours and 24 hours) and are filtered and diluted (acetonitrile/water 1:1) before measurement with liquid chromatography.

solubility: 1 µg/mL (≈ 1.97 µM)
SMILES: CN1C(=O)c2c(nn(Cc3ccc(-c4cccc(F)n4)cc3)c2Nc2ccccc2)N2C1=N[C@@H]1CCC[C@@H]12 [Free Base, (6aR,9aS)-5,6a,7,8,9,9a-hexahydro-5-methyl-3-(phenylamino)-2-((4-(6-fluoropyridin-2-yl)phenyl)methyl)-cyclopent[4,5]imidazo[1,2-a]pyrazolo[4,3-e]pyrimidin-4(2H)-one]
